Measurements from patent publication US20220135591A1, “HETEROCYCLIC COMPOUNDS AS INHIBITORS OF MONOACYLGLYCEROL LIPASE (MAGL)” (Hoffmann-La Roche Inc., priority 2019, published 2022).

Target: T1, MAGL (recombinant wild-type) (Homo sapiens, UniProt Q99685)
T1 sequence (Q99685 1-303): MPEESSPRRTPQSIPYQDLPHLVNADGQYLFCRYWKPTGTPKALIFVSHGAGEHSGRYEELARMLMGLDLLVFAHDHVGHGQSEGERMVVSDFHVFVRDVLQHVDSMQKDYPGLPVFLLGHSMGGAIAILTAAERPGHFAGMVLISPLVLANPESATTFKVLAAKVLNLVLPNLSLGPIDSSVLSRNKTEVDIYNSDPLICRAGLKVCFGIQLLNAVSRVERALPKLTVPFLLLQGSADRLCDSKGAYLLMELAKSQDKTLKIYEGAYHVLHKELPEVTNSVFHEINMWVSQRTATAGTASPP
Assay: 4-NPA assay: MAGL inhibitory activity by hydrolysis of 4-nitrophenylacetate, absorbance at 405 nm
Assay type: biochemical
Settings: 4-NPA assay (values without footnote [b])
Method: Compounds were profiled for MAGL inhibitory activity by measuring the enzymatic activity of MAGL by following the hydrolysis of 4-nitrophenylacetate resulting in 4-nitrophenol, which absorbs at 405-412 nm (G. G. Muccioli, G. Labar, D. M. Lambert, Chem. Bio. Chem. 2008, 9, 2704-2710). This assay is hereinafter abbreviated “4-NPA assay”.
The assay was carried out in 384 well assay plates (black with clear bottom, non-binding surface treated, Corning Ref. 3655) in a total volume of 40 μL. Compound dilutions were made in 100% DMSO (VWR Chemicals 23500.297) in a polypropylene plate in 3-fold dilution steps to give a final concentration range in the assay from 25 μM to 1.7 nM. 1 μL compound dilutions (100% DMSO) were added to 19 μL MAGL (recombinant wild-type) in assay buffer (50 mM TRIS (GIBCO, 15567-027), 1 mM EDTA (Fluka, 03690-100 mL)). The plate was shaked for 1 min at 2000 rpm (Variomag Teleshake) and then incubated for 15 min at RT. To start the reaction, 20 μL 4-Nitrophenlyacetate (Sigma N-8130) in assay buffer with 6% EtOH was added. The final concentrations in the assay were 1 nM MAGL and 300 μM 4-Nitrophenylacetate. After shaking (1 min, 2000 rpm) and 5 min incubation at RT, the absorbance at 405 nm was measured for a first time (Molecular Devices, SpectraMax Paradigm). A second measurement was then done after incubation for 80 min at RT. From the two measurements, the slope was calculated by subtracting the first from the second measurement.

Compound | IC50
CC/C=C/c1nc2ccc(C(=O)N3CCN(c4nc5nc(C)ccc5o4)CC3)cc2o1 [Example 21, [2-[(E)-but-1-enyl]-1,3-benzoxazol-6-yl]-[4-(5-methyloxazolo[4,5-b]pyridin-2-yl)piperazin-1-yl]methanone] | 184 nM
Cc1ccc2oc(N3CCN(C(=O)c4ccc5nc(C6CC6)oc5c4)CC3)nc2n1 [Example 22, (2-cyclopropyl-1,3-benzoxazol-6-yl)-[4-(5-methyloxazolo[4,5-b]pyridin-2-yl)piperazin-1-yl]methanone] | 1250 nM
CC(=O)Cc1nc(-c2ccc(C(=O)N3CCN(c4nc5nc(Cl)ccc5o4)CC3)cc2)no1 [Example 23, 1-[3-[4-[4-(5-chlorooxazolo[4,5-b]pyridin-2-yl)piperazine-1-carbonyl]phenyl]-1,2,4-oxadiazol-5-yl]propan-2-one] | 1550 nM
CC(C)(F)c1nc(-c2ccc(C(=O)N3CCN(c4nc5nc(Cl)ccc5o4)CC3)cc2)no1 [Example 24, [4-(5-chlorooxazolo[4,5-b]pyridin-2-yl)piperazin-1-yl]-[4-[5-(1-fluoro-1-methyl-ethyl)-1,2,4-oxadiazol-3-yl]phenyl]methanone] | 74 nM
CC(C)(C)Cc1noc(-c2ccc(C(=O)N3CCN(c4nc5nc(Cl)ccc5o4)CC3)cc2)n1 [Example 25, [4-(5-chlorooxazolo[4,5-b]pyridin-2-yl)piperazin-1-yl]-[4-[3-(2,2-dimethylpropyl)-1,2,4-oxadiazol-5-yl]phenyl]methanone] | 3 nM
O=C(c1ccc(-c2noc(C3(F)CC3)n2)cc1)N1CCN(c2nc3nc(Cl)ccc3o2)CC1 [Example 26, [4-(5-chlorooxazolo[4,5-b]pyridin-2-yl)piperazin-1-yl]-[4-[5-(1-fluorocyclopropyl)-1,2,4-oxadiazol-3-yl]phenyl]methanone] | 206 nM
CC(C)(C)Cn1cnc(-c2ccc(C(=O)N3CCN(c4nc5nc(Cl)ccc5o4)CC3)cc2)n1 [Example 27, [4-(5-chlorooxazolo[4,5-b]pyridin-2-yl)piperazin-1-yl]-[4-[1-(2,2-dimethylpropyl)-1,2,4-triazol-3-yl]phenyl]methanone] | 3 nM
Cc1ccc2oc(N3CCN(C(=O)c4ccc(-c5ncn(CC(C)(C)C)n5)cc4)CC3)nc2n1 [Example 28, [4-[1-(2,2-dimethylpropyl)-1,2,4-triazol-3-yl]phenyl]-[4-(5-methyloxazolo[4,5-b]pyridin-2-yl)piperazin-1-yl]methanone] | 12 nM
CC(C)(C)Cn1cnc(-c2ccc(C(=O)N3CCN(c4nc5nc(Cl)ccc5o4)CC3)cc2)c1 [Example 29, [4-(5-chlorooxazolo[4,5-b]pyridin-2-yl)piperazin-1-yl]-[4-[1-(2,2-dimethylpropyl)imidazol-4-yl]phenyl]methanone] | 3 nM
CC(C)(C)c1nnc(-c2ccc(C(=O)N3CCN(c4nc5nc(Cl)ccc5o4)CC3)cc2)o1 [Example 30, [4-(5-tert-butyl-1,3,4-oxadiazol-2-yl)phenyl]-[4-(5-chlorooxazolo[4,5-b]pyridin-2-yl)piperazin-1-yl]methanone; 2,2,2-trifluoroacetic acid] | 68 nM
Cc1ccc2oc(N3CCN(C(=O)c4ccc(-c5nnc(C(C)(C)C)o5)cc4)CC3)nc2n1 [Example 31, [4-(5-tert-butyl-1,3,4-oxadiazol-2-yl)phenyl]-[4-(5-methyloxazolo[4,5-b]pyridin-2-yl)piperazin-1-yl]methanone] | 260 nM
CC(C)(O)Cc1nc(-c2ccc(C(=O)N3CCN(c4nc5nc(Cl)ccc5o4)CC3)cc2)no1 [Example 32, [4-(5-chlorooxazolo[4,5-b]pyridin-2-yl)piperazin-1-yl]-[4-[5-(2-hydroxy-2-methyl-propyl)-1,2,4-oxadiazol-3-yl]phenyl]methanone] | 653 nM
Cc1ccc2oc(N3CCN(C(=O)c4ccc(-c5nnc(C(C)(C)CF)o5)cc4)CC3)nc2n1 [Example 33, [4-[5-(2-fluoro-1,1-dimethyl-ethyl)-1,3,4-oxadiazol-2-yl]phenyl]-[4-(5-methyloxazolo[4,5-b]pyridin-2-yl)piperazin-1-yl]methanone] | 498 nM
CC(C)(CF)c1nnc(-c2ccc(C(=O)N3CCN(c4nc5nc(Cl)ccc5o4)CC3)cc2)o1 [Example 34, [4-(5-chlorooxazolo[4,5-b]pyridin-2-yl)piperazin-1-yl]-[4-[5-(2-fluoro-1,1-dimethyl-ethyl)-1,3,4-oxadiazol-2-yl]phenyl]methanone; 2,2,2-trifluoroacetic acid] | 176 nM
Cc1ccc2oc(N3CCN(C(=O)c4ccc(-c5noc(C6(F)CC6)n5)cc4)CC3)nc2n1 [Example 35, [4-[5-(1-fluorocyclopropyl)-1,2,4-oxadiazol-3-yl]phenyl]-[4-(5-methyloxazolo[4,5-b]pyridin-2-yl)piperazin-1-yl]methanone] | 369 nM
Cc1ccc2oc(N3CCN(C(=O)c4ccc(-c5noc(C6(CF)CC6)n5)cc4)CC3)nc2n1 [Example 36, [4-[5-[1-(fluoromethyl)cyclopropyl]-1,2,4-oxadiazol-3-yl]phenyl]-[4-(5-methyloxazolo[4,5-b]pyridin-2-yl)piperazin-1-yl]methanone] | 257 nM
O=C(c1ccc(-c2noc(C3(CF)CC3)n2)cc1)N1CCN(c2nc3nc(Cl)ccc3o2)CC1 [Example 37, [4-(5-chlorooxazolo[4,5-b]pyridin-2-yl)piperazin-1-yl]-[4-[5-[1-(fluoromethyl)cyclopropyl]-1,2,4-oxadiazol-3-yl]phenyl]methanone] | 101 nM
Cc1ccc2oc(N3CCN(C(=O)c4ccc(-c5nc(C(C)(C)C)no5)cc4)CC3)nc2n1 [Example 38, [4-(3-tert-butyl-1,2,4-oxadiazol-5-yl)phenyl]-[4-(5-methyloxazolo[4,5-b]pyridin-2-yl)piperazin-1-yl]methanone] | 45 nM
CC(C)(C)c1noc(-c2ccc(C(=O)N3CCN(c4nc5nc(Cl)ccc5o4)CC3)cc2)n1 [Example 39, [4-(3-tert-butyl-1,2,4-oxadiazol-5-yl)phenyl]-[4-(5-chlorooxazolo[4,5-b]pyridin-2-yl)piperazin-1-yl]methanone] | 19 nM
CC1(Cc2nc(-c3ccc(C(=O)N4CCN(c5nc6nc(Cl)ccc6o5)CC4)cc3)no2)CC1 [Example 40, [4-(5-chlorooxazolo[4,5-b]pyridin-2-yl)piperazin-1-yl]-[4-[5-[(1-methylcyclopropyl)methyl]-1,2,4-oxadiazol-3-yl]phenyl]methanone] | 6 nM
CC(C)(C)n1cnc(-c2ccc(C(=O)N3CCN(c4nc5nc(Cl)ccc5o4)CC3)cc2)n1 [Example 41, [4-(1-tert-butyl-1,2,4-triazol-3-yl)phenyl]-[4-(5-chlorooxazolo[4,5-b]pyridin-2-yl)piperazin-1-yl]methanone] | 29 nM
Cc1ccc2oc(N3CCN(C(=O)c4ccc(-c5ncn(C(C)(C)C)n5)cc4)CC3)nc2n1 [Example 42, [4-(1-tert-butyl-1,2,4-triazol-3-yl)phenyl]-[4-(5-methyloxazolo[4,5-b]pyridin-2-yl)piperazin-1-yl]methanone] | 86 nM
CC(C)(C)Cn1cc(-c2ccc(C(=O)N3CCN(c4nc5nc(Cl)ccc5o4)CC3)cc2)nn1 [Example 43, [4-(5-chlorooxazolo[4,5-b]pyridin-2-yl)piperazin-1-yl]-[4-[1-(2,2-dimethylpropyl)triazol-4-yl]phenyl]methanone] | 6 nM
CC(C)(C)Cn1ncc(-c2ccc(C(=O)N3CCN(c4nc5nc(Cl)ccc5o4)CC3)cc2)n1 [Example 44, [4-(5-chlorooxazolo[4,5-b]pyridin-2-yl)piperazin-1-yl]-[4-[2-(2,2-dimethylpropyl)triazol-4-yl]phenyl]methanone] | 3 nM
CC1CN(c2nc3nc(Cl)ccc3o2)CCN1C(=O)c1ccc(-c2noc(C(C)(C)C)n2)cc1 (stereo not drawn) [Example 45, [4-(5-tert-butyl-1,2,4-oxadiazol-3-yl)phenyl]-[4-(5-chlorooxazolo[4,5-b]pyridin-2-yl)-2-methyl-piperazin-1-yl]methanone] | 72 nM
CC1CN(C(=O)c2ccc(-c3noc(C(C)(C)C)n3)cc2)CCN1c1nc2nc(Cl)ccc2o1 (stereo not drawn) [Example 46, [4-(5-tert-butyl-1,2,4-oxadiazol-3-yl)phenyl]-[4-(5-chlorooxazolo[4,5-b]pyridin-2-yl)-3-methyl-piperazin-1-yl]methanone] | 28 nM
Cc1ccc2oc(N3CCN(C(=O)c4ccc(-c5cnn(C(C)(C)C)c5)cc4)CC3)nc2n1 [Example 47, [4-(1-tert-butylpyrazol-4-yl)phenyl]-[4-(5-methyloxazolo[4,5-b]pyridin-2-yl)piperazin-1-yl]methanone] | 37 nM
